# From article PMC9819389, “Antiandrogenic and Estrogenic Activity Evaluation of Oxygenated and Nitrated Polycyclic Aromatic Hydrocarbons Using Chemically Activated Luciferase Expression Assays” (International Journal of Environmental Research and Public …, 2022)
# pIC50: −log10 of the molar value. “Also recorded” adds a separate entry of the source. Read-outs that look alike come from different tables or passages of the source. Marks after values point to notes of the source that are not given here.
# What was measured:
# AR [1] = conditions: previous study, relative to flutamide, cited from earlier work
# AR [2] = system: AR; set-up: method as in Okamura et al. [22]; key: +, positive; conditions: cited from earlier work
# ER [3] = system: ER; set-up: method as in Pieterse et al. [30]; conditions: previous study; relative to E2; ref Pieterse et al. [30]; cited from earlier work
# human ER [4] = biological target: T1, human ER (Homo sapiens, UniProt P03372); set-up: method as in Machala et al. [36]; conditions: previous study; relative to E2; ref Machala et al. [36]; cited from earlier work
# T1 sequence (P03372 1-595): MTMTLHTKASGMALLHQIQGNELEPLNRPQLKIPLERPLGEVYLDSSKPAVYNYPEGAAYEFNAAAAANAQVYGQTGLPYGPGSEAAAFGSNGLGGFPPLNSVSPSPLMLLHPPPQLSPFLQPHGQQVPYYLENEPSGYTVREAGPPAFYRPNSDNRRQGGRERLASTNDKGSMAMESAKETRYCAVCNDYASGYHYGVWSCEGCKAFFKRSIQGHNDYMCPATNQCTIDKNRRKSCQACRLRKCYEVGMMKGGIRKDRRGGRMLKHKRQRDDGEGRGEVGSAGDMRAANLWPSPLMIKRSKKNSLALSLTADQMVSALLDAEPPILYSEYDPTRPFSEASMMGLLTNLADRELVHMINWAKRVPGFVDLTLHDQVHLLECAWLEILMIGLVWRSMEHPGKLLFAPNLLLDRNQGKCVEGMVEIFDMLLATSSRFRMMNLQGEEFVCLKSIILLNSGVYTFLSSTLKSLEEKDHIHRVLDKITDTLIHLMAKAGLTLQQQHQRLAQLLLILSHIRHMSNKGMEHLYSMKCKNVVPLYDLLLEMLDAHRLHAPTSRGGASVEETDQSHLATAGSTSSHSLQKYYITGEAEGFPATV
# ER [5] = conditions: cited from earlier work
# human AR [6] = biological target: T2, human AR (Homo sapiens, UniProt P10275); experiment: AR-CALUX assay, antiandrogenic (AR antagonistic) activity, U2OS-luc cells; assay type: cell-based; set-up: host or cells: human U2OS-luc (osteoblastic osteosarcoma) cells; conditions: for IC25 / REPmol (IC25) / antiandrogenic activity (in words): present study; for IC25: 24 h exposure with 100 pM DHT (EC50 level); for REPmol (IC25): molar relative potency to flutamide, IC25-based; for pIC50: read-out: IC50; for inhibition of AR-mediated luciferase activity: coexposure to DHT at 10 nM (100 × EC50)
# T2 sequence (P10275 1-920): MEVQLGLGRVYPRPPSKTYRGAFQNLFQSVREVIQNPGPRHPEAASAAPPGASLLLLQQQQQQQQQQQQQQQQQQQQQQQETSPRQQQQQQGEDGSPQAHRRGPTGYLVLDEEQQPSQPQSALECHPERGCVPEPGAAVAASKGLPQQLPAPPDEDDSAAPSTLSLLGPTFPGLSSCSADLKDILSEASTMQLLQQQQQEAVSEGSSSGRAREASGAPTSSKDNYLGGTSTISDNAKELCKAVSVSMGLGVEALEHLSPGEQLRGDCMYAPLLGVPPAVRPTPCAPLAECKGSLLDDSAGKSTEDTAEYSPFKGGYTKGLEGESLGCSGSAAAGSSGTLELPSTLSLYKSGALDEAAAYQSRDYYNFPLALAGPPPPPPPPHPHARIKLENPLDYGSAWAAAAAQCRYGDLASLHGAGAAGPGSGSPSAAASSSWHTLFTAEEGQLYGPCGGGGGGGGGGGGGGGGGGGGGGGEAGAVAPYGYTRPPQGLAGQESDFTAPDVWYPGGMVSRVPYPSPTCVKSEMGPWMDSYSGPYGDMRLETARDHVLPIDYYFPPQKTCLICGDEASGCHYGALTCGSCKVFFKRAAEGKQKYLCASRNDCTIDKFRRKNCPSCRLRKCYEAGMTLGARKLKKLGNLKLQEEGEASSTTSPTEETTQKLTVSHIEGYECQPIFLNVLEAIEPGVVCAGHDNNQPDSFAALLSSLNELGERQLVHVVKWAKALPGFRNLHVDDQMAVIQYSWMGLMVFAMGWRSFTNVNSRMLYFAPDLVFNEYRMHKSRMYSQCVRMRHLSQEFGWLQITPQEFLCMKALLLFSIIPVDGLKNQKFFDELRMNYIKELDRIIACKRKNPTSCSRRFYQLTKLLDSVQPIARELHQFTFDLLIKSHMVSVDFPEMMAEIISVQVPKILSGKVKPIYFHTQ
# Description: (§1) The AR- and ER-CALUX assays for the polycyclic aromatic compounds were evaluated according to previously described methods, which used human U2OS-luc cells developed by BioDetection Systems b.v. (Amsterdam, The Netherlands). The cells are transfected stably with human AR and ER, respectively, and a luciferase reporter gene under their respective steroid receptor response elements. […] They were incubated at 37 °C in a humidified atmosphere containing 5% carbon dioxide. […] The medium was then removed, and the cells were lysed. A solution of luciferin was then added, and the luminescence intensity was measured with an ARVO™ X3 luminometer from PerkinElmer (Waltham, MA, USA). A sigmoid dose–response curve for a chemical was fitted to the Hill equation given by Equation (1) using SigmaPlot 11.0 from Systat Software Inc. (San Jose, CA, USA). y = min + (max − min)/(1 + (a1/x)^a^2)(1) where, y and x are the measured luciferase induction level and compound concentration, respectively. […] The REP values in mol base were obtained by dividing the ICs or ECs of the standard by the ICs or ECs of target compound, respectively.
# (§2) All measurements were conducted in triplicate wells. They were repeated twice and trice in the AR- and ER-CALUX assays, respectively, for each concentration in dose–response curve. […] Cell viability was confirmed using 3-(4,5-dimethylthiazol-2-yl)-2,5-diphenyltetrazolium bromide (MTT) assay. If the cell viability was <80% in the positive control, the corresponding exposure dose was considered cytotoxic and excluded from the calculation.
# ER [7] = system: ER; set-up: method as in Boonen et al. [33]; conditions: previous study; relative to E2; ref Boonen et al. [33]; cited from earlier work
# human ER [8] = biological target: T1, human ER; experiment: ER-CALUX assay, estrogenic activity, U2OS-luc cells; assay type: cell-based; set-up: host or cells: human U2OS-luc (osteoblastic osteosarcoma) cells; conditions: for EC50 / REPmol (EC50): present study; for EC50: 24 h exposure; for REPmol (EC50): molar relative potency to E2, EC50-based
# human AR [9] = biological target: T2, human AR; set-up: method as in Otsuki et al. [38]; key: +, positive; conditions: previous study; ref Otsuki et al. [38]; cited from earlier work
# human AR [10] = biological target: T2, human AR; experiment: AR-CALUX assay, androgenic (agonistic) activity; assay type: cell-based; set-up: host or cells: human U2OS-luc (osteoblastic osteosarcoma) cells; conditions: data not shown
# Description: as §1
# U2OS-luc cells = experiment: MTT cell viability (cytotoxicity) assay; conditions: cell viability <80% considered cytotoxic
# Description: as §2
# [11] = previous study, ref Okamura et al. [22]
# [12] = previous study, relative to E2, ref Šimečková et al. [44]
compound,measurement,setting,value
"c1ccc2c(c1)-c1ccc3ccc4cccc5cc-2c1c3c45 [IdP, indeno[1,2,3-cd]pyrene]","REPmol, U2OS",AR [1]; ref Alvarez-Muñoz et al. [28],0.35 ^f
same,"antiandrogenic activity, PC3",AR [2]; [11],+
"c1ccc2cc3c(ccc4ccccc43)cc2c1 [B[a]A, benz[a]anthracene]","REPmol, U2OS",AR [1]; ref Alvarez-Muñoz et al. [28],1.3
same,"REPmol, U2OS",AR [1]; ref Marin-Kuan et al. [29],0.4
same,"antiandrogenic activity, PC3",AR [2]; [11],+
same,"REPmol, U2OS",ER [3],<2 × 10^−9
same,"REPmol, MVLN",human ER [4],7.9 × 10^−7
same,"REPmol, T47D",ER [5]; [12],1.6 × 10^−6
"O=C1c2ccccc2C(=O)c2c1ccc1ccccc21 [BAQ, 7,12-benz[a]anthracenequinone]","REPmol, MVLN",human ER [4],1.4 × 10^−6
same,IC25,human AR [6],2500 nM
same,REPmol (IC25),human AR [6],0.056
same,pIC50,human AR [6],5.19
"c1ccc2c(c1)cc1ccc3cccc4ccc2c1c34 [B[a]P, benzo[a]pyrene]","REPmol, U2OS",AR [1]; ref Marin-Kuan et al. [29],0.4
same,"REPmol, U2OS",AR [1]; ref Pieterse et al. [30],0.1
same,"antiandrogenic activity, PC3",AR [2]; [11],+
same,"REPmol, U2OS",ER [3],2 × 10^−6
same,"REPmol, VM7",ER [7],5.3 × 10^−6
same,"REPmol, T47D",ER [5]; [12],3.1 × 10^−6
"c1cc2ccc3cccc4ccc(c1)c2c34 [Py, pyrene]","REPmol, U2OS",AR [1]; ref Alvarez-Muñoz et al. [28],0.41
same,"REPmol, U2OS",AR [1]; ref Pieterse et al. [30],0.03
same,"antiandrogenic activity, PC3",AR [2]; [11],+
same,"REPmol, T47D",ER [5]; [12],5.3 × 10^−7
"c1ccc2c(c1)c1cccc3ccc4cccc2c4c31 [B[e]P, benzo[e]pyrene]","antiandrogenic activity, PC3",AR [2]; [11],+
same,inhibition at 10 µM,"human AR [6]; at 10 μM, maximum soluble concentration, read-out: inhibition of AR activation",> 15%
same,antiandrogenic activity (in words),human AR [6],partial antagonist
same,EC50,human ER [8],U (key: U: < 10% response of 1 nM E2; nd: not detected)
same,REPmol (EC50),human ER [8],U (key: U: < 10% response of 1 nM E2; nd: not detected)
"c1ccc2c(c1)ccc1ccccc12 [Phe, phenanthrene]","REPmol, U2OS",AR [1]; ref Pieterse et al. [30],0.1 ^e
same,"REPmol, U2OS",ER [3],<3 × 10^−9
same,"REPmol, VM7",ER [7],1.2 × 10^−6
"c1ccc2c(c1)-c1cccc3cccc-2c13 [FA, fluoranthene]","REPmol, U2OS",AR [1]; ref Alvarez-Muñoz et al. [28],0.96 ^f
same,"REPmol, VM7",ER [7],4.1 × 10^−7
"C[C@]12CC[C@@H]3c4ccc(O)cc4CC[C@H]3[C@@H]1CC[C@@H]2O [E2, 17β-estradiol, reference compound]","REPmol, U2OS",ER [3],1
same,"REPmol, VM7",ER [7],1
same,"REPmol, T47D",ER [5]; [12],1
"c1ccc2c3c(ccc2c1)-c1cccc2cccc-3c12 [B[j]FA, benzo[j]fluoranthene]","antiandrogenic activity, PC3",AR [2]; [11],+
same,IC25,human AR [6],130 nM
same,REPmol (IC25),human AR [6],0.84
same,pIC50,human AR [6],6.54
same,activation (level of the response to 1 nM E2),human ER [8]; at 3 μM,13% activation at 3 μM
"O=[N+]([O-])c1ccc2ccc3c([N+](=O)[O-])ccc4ccc1c2c43 [1,6-DNPy, 1,6-dinitropyrene]","antiandrogenic activity, Yeast",human AR [9],+
same,inhibition at 0.1 µM,"human AR [6]; at 0.1 μM (100 nM), maximum soluble concentration, read-out: inhibition of AR activation",> 20%
same,EC50,human ER [8],U (key: U: < 10% response of 1 nM E2; nd: not detected)
same,REPmol (EC50),human ER [8],U (key: U: < 10% response of 1 nM E2; nd: not detected)
"c1ccc2c(c1)ccc1c3ccccc3ccc21 [Chr, Chrysene]","antiandrogenic activity, PC3",AR [2],+
same,"REPmol, T47D",ER [5],U (key: U: < 10% response of 1 nM E2; nd: not detected)
"O=[N+]([O-])c1ccc2c3c(cccc13)-c1ccccc1-2 [3-NFA, 3-nitrofluoranthene]","antiandrogenic activity, Yeast",human AR [9],+
same,concentration above which inhibition of AR-mediated luciferase activity is attenuated (U-shaped curve),human AR [6],> 300 nM
same,attenuation of antiandrogenic activity,human AR [6]; at high concentrations compared to at 100 nM,approximately 40%
same,inhibition of AR-mediated luciferase activity,human AR [6]; compound at 100 nM,26%
same,inhibition of AR-mediated luciferase activity,human AR [6]; compound at 10 μM,82%
same,mode of AR inhibition,human AR [6]; from coexposure to 10 nM DHT,noncompetitive
same,IC25,human AR [6],5.3 nM
same,REPmol (IC25),human AR [6],32
same,pIC50,human AR [6],7.85
same,concentration above which AR-mediated luciferase activity increases (U-shaped curve),human AR [6]; table entry,increase at > 0.3 μM
same,EC50,human ER [8],U (< 10% response of 1 nM E2)
same,REPmol (EC50),human ER [8],U (< 10% response of 1 nM E2)
same,concentration at which weak androgenic activity was observed,human AR [10],≥ 1 µM
same,"maximum androgenic induction, relative to the EC50 level of DHT",human AR [10],< 16%
same,Emax,"human AR [10]; read-out: maximum androgenic induction, level of maximum response of DHT exposure (10 nM)",< 8%
"c1ccc2c(c1)cc1ccc3c4ccccc4cc4ccc2c1c43 [DB[a,h]P, dibenzo[a,h]pyrene]","REPmol, U2OS",AR [1]; ref Pieterse et al. [30],<0.003 ^e
same,"REPmol, U2OS",ER [3],2 × 10^−5
same,antiandrogenic activity (in words),human AR [6],not observed; also recorded: inactive
"O=[N+]([O-])c1ccc2ccc3cccc4ccc1c2c34 [1-NPy, 1-nitropyrene]","antiandrogenic activity, Yeast",human AR [9],+
same,IC25,human AR [6],94 nM
same,REPmol (IC25),human AR [6],1.4
same,pIC50,human AR [6],6.66
same,activation (level of the response to 1 nM E2),human ER [8]; at 10 μM,14% activation at 10 μM
"c1ccc2cc3ccccc3cc2c1 [Ant, abthracene]","REPmol, U2OS",AR [1]; ref Marin-Kuan et al. [29],0.2 ^d
same,"REPmol, VM7",ER [7],8.3 × 10^−7
"c1ccc2cc3c(cc2c1)-c1cccc2cccc-3c12 [B[k]FA, benzo[k]fluoranthene]","REPmol, U2OS",AR [1]; ref Alvarez-Muñoz et al. [28],2.6 ^f
same,"antiandrogenic activity, PC3",AR [2]; [11],+
"O=C1C(=O)c2ccccc2-c2ccccc21 [PhQ, phenanthrenequinone]",concentration at which cytotoxicity was confirmed,U2OS-luc cells,1000 nM
same,IC25,human AR [6],180 nM
same,REPmol (IC25),human AR [6],0.63
same,pIC50,human AR [6],6.41
